Reference: patent publication US5681695A, “Method for increasing specificity in competitive immunoassays” (priority 1994, dated 1997)

Key:
[1] = tested on: anti-HBc; assay: CORAB radioimmunoassay for anti-HBc (competitive), with reducing agent added to the sample; assay type: binding, human; conditions: for inhibition in the Corab assay: presence of metabisulfite
Experimental: 0.1 ml samples in groups I and II were placed in duplicate reaction wells, along with negative and positive controls, and 10 ul of 0.3% 2-mercaptoethanol (2-ME) in H2 O was added to one each of the duplicates, while 10 ul H2 O was added to the other. 0.1 ml of ^125 I-labeled anti-HBc was added to all wells, followed by an HBcAg-coated 1/4 inch polystyrene bead to all wells. Trays were gently shaken and allowed to incubate overnight at room temperature. All beads were washed 3 times with distilled water and transferred to test tubes for counting for 1 minute in a gamma scintillation counter. The positivity or negativity of each was calculated, as was the degree (%) inhibition from negative control for each specimen both with and without reducing reagent according to the formula: [formula] By this calculation, a sample giving a value equal to or greater than 50% is judged as positive in the test. The effect of the addition of the reducing reagents to the specimens was evaluated by several criteria:
Plasma samples designated 25, 31, 76, 91, 177 and 189 were tested with a commercially available anti-HBc kit (Corab®, Abbott Laboratories, North Chicago, Ill.) with and without addition of 10 ul of a reducing agent, 0.5M sodium metabisulfite. Also, as in Example 4, samples were tested with and without addition of 26.3 ul of a positive anti-HBc sample (Panel 5). […] Samples 31 and 91 are discrepant samples which are confirmed as negative upon addition of the reducing agent.

[2] = tested on: anti-HBc; assay: Microparticle chemiluminescence immunoassay for anti-HBc, with cysteine; assay type: binding, human
Experimental: Recombinant DNA hepatitis B core antigen (rHBcAg) was coupled to carboxylated polystyrene latex microparticles (Seragen Diagnostics, Indianapolis, Ind., 0.188 um) using a two-step procedure. First, purified polyclonal human anti-HBc at 2.7 ug/mg latex particles in the presence of normal human serum (1.0 ul/mg) was coupled using 1-ethyl-3-(3-dimethylaminopropyl) carbodiimide (EDAC, 43 ug/mg) in 0.015M MES buffer (2-[N-morpholino] ethanesulfonic acid), pH 4.8, for 2 hours at room temperature. Bangs, "Uniform Latex Particles", Seragen Diagnostics, 1984. The antibody undercoated particles were then washed three times in 0.1M Tris buffer, pH 7.2, containing 0.9% NaCl, 0.03% EDTA and 0.05% Tween-20 by centrifugation (40,000×g for 20 minutes) and resuspended in 0.1M Tris buffer, pH 7.2, containing 0.9% NaCl, 0.03% EDTA and 0.03% bovine serum albumin. rHBcAg (0.2 ug/mg) was then immunologically adsorbed on the undercoated particles by slow rotation overnight at room temperature. Particles were washed three times as before and dispersed through a 25 gauge needle and stored in 0.01M sodium phosphate, pH 7.2, containing 0.15M NaCl, 0.1% bovine serum albumin, 0.01% Tween-20 and 0.1% sodium azide (Microparticle Diluent). Percent solids was determined by light scattering at 500 nanometers. Coated particles were stored concentrated (typically 5-10% solids) and diluted in storage buffer to a working concentration (0.036%) before each assay. In an alternative method, rHBcAg was coupled directly to the microparticles by the EDAC method. The anti-HBc undercoating method is preferred.
Acridinium-labeled purified anti-HBc (human) was prepared using an EDAC coupling procedure on the active ester. Briefly, 1 mg of B-alanine acridinium was dissolved in 100 ul anhydrous DMF and activated by sequential addition of 50 ul N-hydroxylsuccinimide (NHS) (5.75 mg/ml) and 50 ul EDAC (19.2 mg/ml) (molar ratio NHS:EDAC=1:2). The reaction proceeded in the dark at room temperature for 30 minutes. Protein A purified human anti-HBc was dialyzed (3×) against PBS, 0.5% CHAPS, pH 6.3, overnight at 2°-8° C. Activated acridinium was added to dialyzed antibody (30:1 molar excess) and the reaction mixture stirred for 30 minutes at room temperature. After dialysis versus the same buffer, the preparation was centrifuged and the supernatant chromatographed on a Beckman TSK 250 HPLC column equilibrated with the same buffer. Individual fractions (1 ml) were analyzed by UV spectroscopy at 369 and 280 nm to determine incorparation of acridinium (typically 3:1).
100 ul duplicates of samples including a sensitivity panel sample (1.23 Paul Erhlich Units/ml, Panel 7), two samples, S9 and S14, which were similar in anti-HBc reactivity to Group II samples described above, and negative and positive controls were added to a microtiter plate. […] 50 ul of the HBcAg-coated microparticles (0.036% solids) were added to all wells. This reaction mixture was incubated for 20 minutes in a 40° water bath.
166 ul of each reaction mixture was transferred to a microparticle capture/flow-through glass fiber filter funnel (Abbott Laboratories, North Chicago, Ill.) which was prewetted with 50 ul of 0.1% Tween-20. Each capture membrane was then washed twice with 50 ul of 0.1% Tween-20. 20 ul of the acridinium-labeled anti-HBc (375 ng/ml) was added to the surface of each capture membrane and incubated at room temperature for 20 minutes. The capture membranes were then washed twice with 100 ul and once with 50 ul of 0.1% Tween-20.
The membranes were then transferred to a chemiluminescence reader where approximately 100 ul of a trigger solution comprising 0.3% H2 O2 in 0.25N NaOH was delivered to each membrane. The amount of light generated by the acridinium-labelled reagent bound to the microparticles was determined and is inversely proportional to the amount of anti-HBc present in the sample. […] There was a 10-20% signal loss in the negative control in the presence of cysteine. […]

[3] = tested on: anti-HBc; assay: Sephacryl S-300 fractions assayed for anti-HBc activity by microparticle assay, with cysteine; assay type: binding
Experimental: Briefly, 2 ml of recalcified Sample 209 was applied to a Sephacryl S-300 column (2.5×50 cm) equilibrated with PBS. 2.5 ml fractions were collected at a flow rate of 20 ml/hr. Fractions were assayed using the microparticle assay of Example 3 except that an approximately 5 fold increase in sensitivity was implemented by using increasing incubation time and decreasing the amount of anti-HBc conjugate. […] The first inhibitory peak was not detected when assayed in the presence of cysteine. The second and major inhibitory peak, which co-eluted with the IgG protein peak, was unaffected by cysteine treatment. The immunoglobulin G associated anti-HBc activity is specific for non-acute hepatitis B infection.
3 ml of a borderline positive sample (Sample 9) was tested according to the procedure of Example 9. […] In the absence of reducing agent, a single inhibitory peak was seen near the void volume of the column. This peak was not detected when assayed in the presence of cysteine, and was clearly resolved form the IgG protein peak. This non-IgG reactivity is not believed to be a result of Hepatitis B infection and is therefore nonspecific.

O=S([O-])S(=O)(=O)[O-].[Na+].[Na+] [MBS, sodium metabisulfite]
<cpm> ([1]; 10 ul 0.5M MBS, NC): 20856 cpm | % I (percent inhibition) ([1]; 10 ul 0.5M MBS, NC spiked with Panel 5): 73.6% | <cpm> ([1]; 10 ul 0.5M MBS, PC): 350 cpm | % I (percent inhibition) ([1]; 10 ul 0.5M MBS, Panel 7): 71.0% | <Sx*> % I ([1]; 10 ul 0.5M MBS, mean of samples spiked with Panel 5): 74.8% | <Sx> % I ([1]; 10 ul 0.5M MBS, mean of unspiked samples): 11.4% | % I (percent inhibition) ([1]; 10 ul 0.5M MBS, sample OBI 25): 7.6% | % I (percent inhibition) ([1]; 10 ul 0.5M MBS, sample OBI 25 spiked with Panel 5): 74.3% | % I (percent inhibition) ([1]; 10 ul 0.5M MBS, sample OBI 31): 10.4% | % I (percent inhibition) ([1]; 10 ul 0.5M MBS, sample OBI 31 spiked with Panel 5): 75.6% | % I (percent inhibition) ([1]; 10 ul 0.5M MBS, sample OBI 76): 5.8% | % I (percent inhibition) ([1]; 10 ul 0.5M MBS, sample OBI 76 spiked with Panel 5): 74.2% | % I (percent inhibition) ([1]; 10 ul 0.5M MBS, sample OBI 91): 10.8% | % I (percent inhibition) ([1]; 10 ul 0.5M MBS, sample OBI 91 spiked with Panel 5): 75.0% | % I (percent inhibition) ([1]; 10 ul 0.5M MBS, sample OBI 177): 31.5% | % I (percent inhibition) ([1]; 10 ul 0.5M MBS, sample OBI 177 spiked with Panel 5): 74.4% | % I (percent inhibition) ([1]; 10 ul 0.5M MBS, sample OBI 189): 2.5% | % I (percent inhibition) ([1]; 10 ul 0.5M MBS, sample OBI 189 spiked with Panel 5): 75.1% | effect on anti-HBc positive samples ([1]; Panel 7 and samples spiked with Panel 5): not affected | absolute values for negative and positive controls ([1]; Table I): not affected significantly | inhibition in the Corab assay ([1]; Sample 9): 5.2% | inhibition in the Corab assay ([1]; Sample 209): 86.3%

N[C@@H](CS)C(=O)O [cysteine]
COUNTS ([2]; 200 mM cysteine solution (EDTA, DTT), Negative Control): 23992 COUNTS | % I (percent inhibition) ([2]; 200 mM cysteine solution (EDTA, DTT), Panel 7): 76.3% | % I (percent inhibition) ([2]; 200 mM cysteine solution (EDTA, DTT), Plasma S9): 3.2% | % I (percent inhibition) ([2]; 200 mM cysteine solution (EDTA, DTT), Plasma S14): 3.0% | COUNTS ([2]; 200 mM cysteine solution (EDTA, DTT), Positive Control): 5000 COUNTS | <cpm> ([2]; 10 ul 0.75M cysteine fresh, NC): 20856 cpm | % I (percent inhibition) ([2]; 10 ul 0.75M cysteine fresh, NC spiked with Panel 5): 80.8% | <cpm> ([2]; 10 ul 0.75M cysteine fresh, PC): 4035 cpm | % I (percent inhibition) ([2]; 10 ul 0.75M cysteine fresh, Panel 7): 80.7% | average percent inhibition ([2]; 10 ul 0.75M cysteine fresh, plasma samples spiked with Panel 5): 71.5% | % I (percent inhibition) ([2]; 10 ul 0.75M cysteine fresh, sample 52): 6.2% | % I (percent inhibition) ([2]; 10 ul 0.75M cysteine fresh, sample 52 spiked with Panel 5): 67.9% | % I (percent inhibition) ([2]; 10 ul 0.75M cysteine fresh, sample 71): 36.0% | % I (percent inhibition) ([2]; 10 ul 0.75M cysteine fresh, sample 71 spiked with Panel 5): 69.9% | % I (percent inhibition) ([2]; 10 ul 0.75M cysteine fresh, sample 166): 54.0% | % I (percent inhibition) ([2]; 10 ul 0.75M cysteine fresh, sample 166 spiked with Panel 5): 80.8% | % I (percent inhibition) ([2]; 10 ul 0.75M cysteine fresh, sample 189): 11.1% | % I (percent inhibition) ([2]; 10 ul 0.75M cysteine fresh, sample 189 spiked with Panel 5): 70.5% | % I (percent inhibition) ([2]; 10 ul 0.75M cysteine fresh, sample 277): -2.5% | % I (percent inhibition) ([2]; 10 ul 0.75M cysteine fresh, sample 277 spiked with Panel 5): 68.6% | average percent inhibition ([2]; 10 ul 0.75M cysteine fresh, unspiked plasma samples): 21.0% | mean counts ([2]; Example 5, + cysteine reagent, Negative control): 24494 counts | % I (percent inhibition) ([2]; Example 5, + cysteine reagent, Panel 5): 86.7% | % I (percent inhibition) ([2]; Example 5, + cysteine reagent, Panel 6): 85.3% | % I (percent inhibition) ([2]; Example 5, + cysteine reagent, Panel 7): 77.2% | % I (percent inhibition) ([2]; Example 5, + cysteine reagent, Panel 8): 53.5% | % I (percent inhibition) ([2]; Example 5, + cysteine reagent, Panel 9): 21.0% | mean counts ([2]; Example 5, + cysteine reagent, Positive control): 5678 counts | activity (interfering factor) in Group II type samples ([2]; S9 and S14, presence of cysteine): eliminated | signal loss in the negative control ([2]; presence of cysteine): 10-20% | single inhibitory peak near the void volume ([3]; Sample 9, presence of cysteine): not detected | second and major inhibitory peak (co-eluted with IgG) ([3]; Sample 209, cysteine treatment): unaffected | first inhibitory peak ([3]; Sample 209, presence of cysteine): not detected
